Assay results from paper PMC11247503 (Journal of Medicinal Chemistry, 2024).
“Also recorded” adds a separate entry of the source. Counter-ions that a name gives are not always drawn. Like-named read-outs stand apart in the source and are kept apart here. Values belong to the compound of their own block, whether it stands above or below them.

Experiments:
mouse Spns2 [1] = target: T1, mouse Spns2 (Mus musculus, UniProt Q91VM4); experiment: HeLa cell S1P release assay (Spns2 inhibition); type: cell-based; conditions: for inhibition at 1 µM / %Inhib. (Spns2 inhibition, percent decrease in S1P secretion relative to control): 1 μM inhibitor, S1P in media by LC-MS/MS; for inhibition at 1 µM: read-out: %Inhib. (Spns2 inhibition, percent decrease in S1P secretion relative to control)
T1 construct: expressed in transfected cells; host or cells: HeLa cells (G418-resistant pools)
T1 sequence (Q91VM4 1-549): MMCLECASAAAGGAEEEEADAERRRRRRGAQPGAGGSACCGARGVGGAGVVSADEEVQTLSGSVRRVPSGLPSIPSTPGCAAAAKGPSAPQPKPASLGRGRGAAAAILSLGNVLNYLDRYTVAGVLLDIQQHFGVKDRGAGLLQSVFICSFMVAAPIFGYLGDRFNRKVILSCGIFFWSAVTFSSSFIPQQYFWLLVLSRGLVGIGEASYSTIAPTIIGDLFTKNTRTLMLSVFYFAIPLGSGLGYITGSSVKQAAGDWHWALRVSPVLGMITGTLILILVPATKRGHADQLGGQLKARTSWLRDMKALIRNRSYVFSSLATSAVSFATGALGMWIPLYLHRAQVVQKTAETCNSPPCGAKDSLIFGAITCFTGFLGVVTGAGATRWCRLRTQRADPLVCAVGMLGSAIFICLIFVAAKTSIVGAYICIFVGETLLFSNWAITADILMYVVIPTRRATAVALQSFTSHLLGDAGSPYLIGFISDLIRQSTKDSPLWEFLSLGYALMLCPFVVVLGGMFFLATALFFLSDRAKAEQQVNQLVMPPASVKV
Protocol: With a library of analogs of SLB1122168 containing phenylurea, phenylcarbamate, and benzamide as bioisostere of the benzoxazole, we investigated their potential in inhibiting S1P transport using a HeLa cell assay.[36]−[38],[43] Briefly, in this assay, Spns2 is overexpressed whereas the S1P-degrading enzymes (lyase or phosphatases) were blocked with inhibitors.[44],[45] Inhibition of S1P transport is determined by measuring the amount of S1P in the buffer using LC-MS.
This assay was conducted as reported by Kharel et al.[43] Briefly, compounds were assessed in a HeLa cell assay at a 1 μM test concentration, unless noted otherwise. HeLa cells were transfected with a pcDNA3.1 plasmid encoding mouse Spns2, and pools of cells resistant to G418 were selected. S1P catabolic pathways were suppressed by the addition of 4-deoxypyridoxine (1 mM), NaF (2 mM), and Na3VO4 (0.2 mM). After growing cells to near confluence on 12-well tissue culture dishes, growth media was removed, inhibitors were introduced in release media (serum free medium containing 0.2% fatty acid free BSA), and the cells were incubated for 16–18 h at 37 °C. The BSA with bound S1P was concentrated from the release media by TFA-driven precipitation after addition of the d7-S1P internal standard, the S1P extracted from the protein pellet, and quantified by LC-MS/MS. Lower levels of S1P release into the media indicated greater degrees of Spns2 inhibition. Inhibition is reported as the percent decrease in S1P release relative to the control where no inhibitor was introduced.

[2] = design: method as in PMID 37010497; conditions: cited from earlier work
[3] = Compound concentrations in plasma of mice after oral dose; type: in vivo, mice (C57BL/6j)
Protocol: We next investigated the potential oral bioavailability of 11i (SLF80821178), which will be a significant advantage over SLB1122168. […] Thus, mice were administered a single 10 mg/kg oral dose of 11i, and compound levels in plasma were quantified.
Figure 7 Compound concentrations in plasma of mice treated with 11i. Three C57BL/6j strain female mice (8–10 weeks old) were treated with a single 10 mg/kg dose of 11i administered PO. Blood samples were collected, and plasma 11i levels were quantified via LC-MS/MS.
Compounds that performed well in the HeLa cell assay were subsequently administered to mice (C57BL/6j strain). Inhibitor (10 mg/kg) or an equivalent dose of vehicle (36.1% PEG400/9.1% ethanol/4.6% solutol/50% H2O) was administered to animals via an intraperitoneal injection or oral gavage. After 6 to 16 h, blood samples were collected. Lymphocyte counts were obtained from 20 μL of mouse blood using a Heska HT5 Element blood analyzer. Plasma S1P concentrations were determined using LC-MS/MS. All animal protocols were approved prior to experimentation by the University of Virginia School of Medicine’s Animal Care and Use Committee.

circulating lymphocytes = experiment: Circulating lymphocyte counts in mice; type: in vivo, mice (C57BL/6j)
Protocol: (§1) To determine the effect of 11iin vivo, mice were treated with 3, 10, and 30 mg/kg intraperitoneally, and the amount of circulating lymphocytes was quantified. A hallmark of Spns2 inhibition is the decrease in lymphocytes counts, which is a pharmacodynamic marker of target engagement.[54],[55] […] To determine whether blood S1P levels were affected, plasma S1P concentrations were measured via LC-MS. […] The extent by which Spns2 inhibition by knockout or a pharmacological inhibitor affects the S1P level remains unclear. A range of changes from no significant difference[30]−[32] to 45% reduction in plasma S1P levels compared to wild type littermates have been reported.[9],[24],[28],[33]
(§2) Figure 8 Biological evaluation of 11i in five C57BL/6j strain female mice (8–10 weeks old). […] Blood was drawn 4 h postdose. (B) Plasma S1P concentrations in mice treated with 11i are shown relative to vehicle 6 h following IP administration at 3 mg/kg, 10 mg/kg, and 30 mg/kg. […] Blood was drawn 4 h postdose. (D) Plasma S1P concentrations in mice treated with 11i are shown relative to vehicle 4 h post oral administration at 10 mg/kg, 30 mg/kg, and 100 mg/kg. […]
(§3) Compounds that performed well in the HeLa cell assay were subsequently administered to mice (C57BL/6j strain). […] Plasma S1P concentrations were determined using LC-MS/MS. […]

plasma S1P = experiment: Plasma S1P concentrations in mice; type: in vivo, mice (C57BL/6j)
Protocol: as §1, §2, §3

mice = system: mice; design: method as in PMID 35609189; conditions: dose 30 mg/kg; cited from earlier work
kidney fibrosis = system: kidney fibrosis; design: method as in PMID 35976996; conditions: unilateral ischemia-reperfusion injury; cited from earlier work
mouse Spns2 [4] = target: T1, mouse Spns2; conditions: read-out: IC50 (Spns2 inhibition); cited from earlier work

inhibition at 1 µM (mouse Spns2 [1]; HeLa, HeLa cells): 85 ± 2%
Compound: CCCCCCCCCCc1ccc2nc(NC[C@H]3CCNC3)oc2c1.Cl [SLB1122168]
oral bioavailability [2]: not orally bioavailable; also recorded: poor oral bioavailability

inhibition at 1 µM (mouse Spns2 [1]; HeLa, HeLa cells): ≥ 80%
IC50 (mouse Spns2 [1]; dose-response 1 nM to 10 μM, HeLa cells transfected with Spns2, read-out: IC50, inhibition of S1P release from HeLa cells): 51 ± 3 nM
oral bioavailability ([3]; 10 mg/kg PO): orally bioavailable
Tmax ([3]; female, C57BL/6j, mouse, single 10 mg/kg PO, plasma, read-out: tmax (time of maximum circulating level)): 4 h
compound exposure at tmax (maximum plasma concentration) ([3]; single 10 mg/kg PO, plasma): 1.2 µM
time circulating levels remained elevated above 0.5 μM ([3]; single 10 mg/kg PO, plasma): more than 8 h
Compound: CCCCCCCCCCc1ccc(NC(=O)N2CCNCC2)cc1.Cl [11i, N-(4-Decylphenyl)piperazine-1-carboxamide Hydrochloride]
decrease in lymphocyte count, maximum level (circulating lymphocytes; IP 3, 10 and 30 mg/kg, blood 4 h postdose): 50%
reduction in circulating lymphocyte counts (circulating lymphocytes; route not stated at this place (abstract)): ~50%
change in plasma S1P levels (plasma S1P; IP 3, 10 and 30 mg/kg, 6 h): no change
change in plasma S1P levels (plasma S1P; PO 10, 30 and 100 mg/kg, 4 h): no change

Compound: CCCCCCCCCCc1ccc(-c2noc(CCCN)n2)cc1.Cl [SLF1081851]
inhibition at 1 µM (mouse Spns2 [1]; HeLa, HeLa cells): 44 ± 5%
toxicity to mice (mice): toxic
effect on kidney fibrosis (kidney fibrosis): ameliorated kidney fibrosis

inhibition at 1 µM (mouse Spns2 [1]; HeLa, HeLa cells): 48 ± 2%
Compound: CCCCCCCCCCc1ccc(NC(=O)O[C@H]2CCCNC2)cc1 [(S)-8e, (S)-Piperidin-3-yl (4-Decylphenyl)carbamate Hydrochloride]

%Inhib. (Spns2 inhibition, percent decrease in S1P secretion relative to control) (mouse Spns2 [1]; HeLa cells, 1 µM): 61 ± 5%
inhibition at 1 µM (mouse Spns2 [1]; HeLa, HeLa cells): 61 to 66%
Compound: CCCCCCCCCCc1ccc(C(=O)N[C@H]2CCNC2)cc1.Cl [(S)-4d, (S)-4-Decyl-N-(pyrrolidin-3-yl)benzamide Hydrochloride]

inhibition at 1 µM (mouse Spns2 [1]; HeLa, HeLa cells): 35%
Compound: CCCCCCCCCCc1ccc(NC(=O)N2CC3CC2CN3)cc1 (stereo not drawn) [11j, N-(4-Decylphenyl)-2,5-diazabicyclo[2.2.1]heptane-2-carboxamide Hydrochloride]

Compound: CCCCCCCCCCc1ccc(-c2cn(CC)c(CCCN)n2)cc1 [SLF80721166]
IC50 (mouse Spns2 [4]): 1400 ± 300 nM

inhibition at 1 µM (mouse Spns2 [1]; HeLa, HeLa cells): 68 ± 1%
Compound: CCCCCCCCCCc1ccc(NC(=O)O[C@@H]2CCNC2)cc1 [(R)-8b, (R)-Pyrrolidin-3-yl (4-Decylphenyl)carbamate Hydrochloride]

inhibition at 0.3 µM (mouse Spns2 [1]; HeLa, 0.3 μM inhibitor (Figure 5), HeLa cells, read-out: % Inhibition, tail homologation study): 57 ± 1%
Compound: CCCCCCCCCCCCc1ccc(NC(=O)N2CCNCC2)cc1 [20f, N-(4-Dodecylphenyl)piperazine-1-carboxamide Hydrogen Chloride]

Compound: 2-Aminoethyl (4-Decylphenyl)carbamate Hydrochloride [8a]
%Inhib. (Spns2 inhibition, percent decrease in S1P secretion relative to control) (mouse Spns2 [1]; HeLa cells): 44 ± 7%

inhibition at 1 µM (mouse Spns2 [1]; HeLa, HeLa cells): 53%
Compound: CCCCCCCCCCc1ccc(NC(=O)NCCCN)cc1 [11a, 1-(3-Aminopropyl)-3-(4-decylphenyl)urea Hydrochloride]
